Experiments:
PDIA1 [1] = molecular target: T1, PDIA1 (Homo sapiens, UniProt P07237); assay: Insulin turbidity assay; details: for kinact/KI: 0.5 μM PDIA1, 0.16 mM insulin, 1 mM DTT, varying concentrations and pre-incubation times
PDIA1 C53A and C397A = format: binding; details: from IC50 values; PDIA1 C53A and C397A 50 μg/mL in MCF-7 lysates 1 mg/mL, CA-Rh 8 μM
PDIA4 [2] = molecular target: T2, PDIA4 (Homo sapiens, UniProt P13667); details: HEK293^DAX cells, KSC-34 40 μM, 1 h pre-treatment
PDIA1 C53A = PDIA1 C53A (Homo sapiens, UniProt P07237, C53A); details: KSC-34 5 μM, protein 50 μg/mL, 1 hour
PDIA1 C53A, sequence (P07237 18-508 C53A): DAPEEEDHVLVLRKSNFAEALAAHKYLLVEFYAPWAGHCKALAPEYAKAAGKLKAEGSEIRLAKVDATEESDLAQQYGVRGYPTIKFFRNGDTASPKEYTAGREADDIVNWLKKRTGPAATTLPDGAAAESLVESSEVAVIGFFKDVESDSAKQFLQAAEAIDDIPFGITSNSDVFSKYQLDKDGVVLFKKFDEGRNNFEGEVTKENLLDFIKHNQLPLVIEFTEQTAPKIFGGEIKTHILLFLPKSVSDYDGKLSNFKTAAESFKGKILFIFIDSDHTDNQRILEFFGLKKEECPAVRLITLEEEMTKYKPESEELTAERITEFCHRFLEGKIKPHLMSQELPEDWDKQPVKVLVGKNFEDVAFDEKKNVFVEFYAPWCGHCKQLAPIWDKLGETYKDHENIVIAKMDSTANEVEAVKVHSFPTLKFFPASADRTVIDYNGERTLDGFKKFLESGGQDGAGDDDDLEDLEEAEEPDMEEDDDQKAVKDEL

PDIA4 [3] = molecular target: T2, PDIA4; details: PDIA4 50 μg/mL, with or without MCF-7 lysates 1 mg/mL
MCF-7 cells [4] = details: read-out: EC50 MTT cell viability
MCF-7 cells [5] = test system: MCF-7 cells
[6] = test system: HEK293^Trex cells stably expressing ^FTALLC; assay: Viability by Cell Titre Glo; format: cell-based; details: KSC-34 40 μM, Cell Titre Glo after media conditioning
PDIA1 [7] = molecular target: T1, PDIA1; details: HEK293^DAX cells, KSC-34 40 μM, 1 h pre-treatment
PDIA1 [8] = molecular target: T1, PDIA1; details: MCF-7 cells, KSC-34 5 μM; ~5 in the DMSO control
[9] = molecular target: prostaglandin E synthase 2 (PTGES2) (Homo sapiens, UniProt Q9H7Z7); assay: Proteome-wide target enrichment, LC/LC-MS/MS spectral counts; details: MCF-7 cells, KSC-34 5 μM
prostaglandin E synthase 2 (PTGES2), sequence (Q9H7Z7 whole entry): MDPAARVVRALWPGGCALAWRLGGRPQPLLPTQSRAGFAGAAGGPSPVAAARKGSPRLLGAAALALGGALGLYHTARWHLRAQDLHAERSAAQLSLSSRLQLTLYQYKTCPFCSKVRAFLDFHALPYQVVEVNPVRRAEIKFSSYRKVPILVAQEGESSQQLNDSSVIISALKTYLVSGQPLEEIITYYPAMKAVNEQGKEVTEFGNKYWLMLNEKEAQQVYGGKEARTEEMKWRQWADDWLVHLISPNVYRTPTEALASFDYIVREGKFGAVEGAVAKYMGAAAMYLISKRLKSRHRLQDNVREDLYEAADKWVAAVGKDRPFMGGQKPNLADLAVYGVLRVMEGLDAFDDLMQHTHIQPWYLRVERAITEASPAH

endogenous PDIA1 = endogenous PDIA1 (Homo sapiens, UniProt P07237); assay: In-gel fluorescence: endogenous PDIA1 in MCF-7 lysates; format: binding; details: compound 5 μM, MCF-7 lysates 2 mg/mL
endogenous PDIA1, sequence (P07237 18-508): as the sequence (P07237 18-508 C53A) above, with A36C counted along it

HEK293^DAX cells = assay: [35S] metabolic labeling, fraction FTALLC secreted; format: cell-based; details: KSC-34 40 μM added 1 h prior to labeling and throughout
[10] = test system: HEK293^Trex cells stably expressing ^FTALLC; assay: FTALLC secretion by ELISA; format: cell-based; details: KSC-34 40 μM, 4 h pretreatment, 2 h conditioning, compared to vehicle
[11] = test system: HEK293^DAX cells stably expressing PDIA1 shRNA; details: KSC-34 40 μM, ELISA and [35S] metabolic labeling
PDIA6 = PDIA6 (Homo sapiens, UniProt Q15084); details: MCF-7 cells, KSC-34 5 μM
PDIA6, sequence (Q15084 20-440): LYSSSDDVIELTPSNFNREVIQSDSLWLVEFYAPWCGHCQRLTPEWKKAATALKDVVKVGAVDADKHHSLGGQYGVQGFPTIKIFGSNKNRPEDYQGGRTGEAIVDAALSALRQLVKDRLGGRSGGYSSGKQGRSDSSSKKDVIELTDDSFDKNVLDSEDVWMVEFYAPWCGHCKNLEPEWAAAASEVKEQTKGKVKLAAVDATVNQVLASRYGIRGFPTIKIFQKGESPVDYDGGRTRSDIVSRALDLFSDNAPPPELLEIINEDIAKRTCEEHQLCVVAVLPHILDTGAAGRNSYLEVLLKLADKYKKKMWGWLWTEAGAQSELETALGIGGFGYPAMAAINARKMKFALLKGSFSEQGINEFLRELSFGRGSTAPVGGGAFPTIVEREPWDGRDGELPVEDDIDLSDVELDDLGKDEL

[12] = molecular target: T3, purified, recombinant PDIA1 (Homo sapiens, UniProt P07237); assay: In-gel fluorescence: recombinant PDIA1 in the background of MCF-7 cell lysates; format: binding; details: PDIA1 50 μg/mL in MCF-7 cell lysates 1 mg/mL
T3 sequence (P07237 18-508): as the sequence (P07237 18-508 C53A) above, with A36C counted along it

SKOV-3 = assay: qPCR analysis of UPR target genes; format: cell-based; details: SKOV-3 cells
[13] = molecular target: T3, purified, recombinant PDIA1; assay: In-gel fluorescence screen: covalent modification of purified recombinant PDIA1; format: binding; details: compound 5 μM, PDIA1 50 μg/mL, 1 hour, TAMRA in-gel fluorescence
PDIA1 [14] = molecular target: T1, PDIA1; details: 5 μM, MCF-7 cells, 3 hours at 37 °C
PDIA3 = PDIA3 (Homo sapiens, UniProt P30101); details: PDIA3 50 μg/mL, with or without MCF-7 lysates 1 mg/mL
PDIA3, sequence (P30101 25-505, species assumed): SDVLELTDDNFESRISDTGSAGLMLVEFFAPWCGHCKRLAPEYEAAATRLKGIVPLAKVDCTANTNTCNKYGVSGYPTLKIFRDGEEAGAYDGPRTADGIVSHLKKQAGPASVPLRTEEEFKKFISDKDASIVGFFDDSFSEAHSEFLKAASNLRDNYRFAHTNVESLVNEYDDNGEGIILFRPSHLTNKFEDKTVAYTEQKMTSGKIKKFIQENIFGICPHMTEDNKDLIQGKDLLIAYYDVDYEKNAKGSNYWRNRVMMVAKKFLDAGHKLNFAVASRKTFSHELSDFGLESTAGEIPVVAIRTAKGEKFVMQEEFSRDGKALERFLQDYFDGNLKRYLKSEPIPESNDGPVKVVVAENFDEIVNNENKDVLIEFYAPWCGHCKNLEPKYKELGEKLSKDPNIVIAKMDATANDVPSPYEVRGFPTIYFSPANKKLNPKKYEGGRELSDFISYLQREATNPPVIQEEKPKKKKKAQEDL

T1 sequence (P07237 18-508): as the sequence (P07237 18-508 C53A) above, with A36C counted along it
T2 sequence (P13667 21-645, species assumed): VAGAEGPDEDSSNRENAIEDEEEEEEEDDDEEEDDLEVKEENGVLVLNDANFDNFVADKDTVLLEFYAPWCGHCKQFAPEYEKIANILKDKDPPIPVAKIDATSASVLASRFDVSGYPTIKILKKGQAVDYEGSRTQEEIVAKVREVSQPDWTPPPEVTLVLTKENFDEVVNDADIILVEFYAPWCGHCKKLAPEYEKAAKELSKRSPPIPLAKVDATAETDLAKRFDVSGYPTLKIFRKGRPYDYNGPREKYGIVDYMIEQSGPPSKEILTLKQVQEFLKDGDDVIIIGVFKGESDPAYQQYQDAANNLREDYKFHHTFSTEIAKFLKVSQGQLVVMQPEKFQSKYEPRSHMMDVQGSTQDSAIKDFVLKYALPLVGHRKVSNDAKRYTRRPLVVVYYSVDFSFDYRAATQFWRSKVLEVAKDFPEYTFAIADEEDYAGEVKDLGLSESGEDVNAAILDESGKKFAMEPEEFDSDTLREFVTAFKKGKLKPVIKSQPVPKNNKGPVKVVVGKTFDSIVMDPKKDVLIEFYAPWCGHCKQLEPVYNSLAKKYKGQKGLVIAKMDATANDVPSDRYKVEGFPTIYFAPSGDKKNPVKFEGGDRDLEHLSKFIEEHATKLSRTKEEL

16F16 [reference compound]
kinact/KI (PDIA1 [1]): 252 M⁻¹ s⁻¹
selectivity for the a domain over the a′ domain (PDIA1 C53A and C397A): 2 fold

C#CCNc1nc(NCCNC(=O)CCl)nc(N(C)CCCCc2ccccc2)n1 [KSC-34]
effect on IRE1α-dependent UPR transcripts (A549 cells): no significant effects
interaction of PDIA4 with FTALLC (co-IP) (PDIA4 [2]): does not influence the interaction between these proteins
kinact/KI (PDIA1 [1]): 9660 M⁻¹ s⁻¹
potency (kinact/KI) relative to RB-11-ca (PDIA1 [1]; insulin turbidity assay): ~ 3 fold
labeling of PDIA1 C53A (PDIA1 C53A): absence of fluorescence
labeling of PDIA4 (PDIA4 [3]): absence of fluorescence
EC50 (MCF-7 cells [4]): 82 µM
timeframe of IRE1α activation (MCF-7 cells [5]): < 6 h
activation of the PERK and ATF6 arms of the UPR (MCF-7 cells [5]; 4–40 μM, 3 hours at 37 °C): no significant activation
increase in SEC24D and ERDJ4 mRNA levels (MCF-7 cells [5]; >20 μM KSC-34, 3 hours, relative to DMSO): ~ 2 fold
reduction in cellular viability [6]: 20%
interaction of PDIA1 with FTALLC (co-IP) (PDIA1 [7]): disrupted this interaction
average spectral counts matched to PDIA1 (PDIA1 [8]): ~ 2000 spectral counts
average spectral counts PTGES2 [9]: ~ 120 spectral counts
covalent modification of endogenous PDIA1 relative to RB-11-ca (endogenous PDIA1): equal or greater potency toward PDIA1 compared to RB-11-ca
reduction of fraction of [35S]-labeled FTALLC secreted (HEK293^DAX cells): 30%
reduction of FTALLC levels in conditioned media [10]: 40%
KSC-34-dependent reduction in FTALLC secretion upon depletion of PDIA1 [11]: attenuated
spectral counts PDIA6 (PDIA6): ~ 20 spectral counts
covalent modification of PDIA1 relative to RB-11-ca [12]: equal or greater potency to RB-11-ca
effect on IRE1α-dependent UPR transcripts (SKOV-3): no significant effects
covalent modification of PDIA1 relative to RB-11-ca [13]: equal or greater potency compared to RB-11-ca
potency of PDIA1 modification in living cells compared to RB-11-ca (PDIA1 [14]): ~ 8 fold
labeling of PDIA3 (PDIA3): absence of fluorescence
selectivity for the a domain over the a′ domain (PDIA1 C53A and C397A): 30 fold

Reference: paper PMC5884060 (Biochemistry, 2018)
